Test: Degradation temperature by thermal gravimetric analysis (TGA) or differential scanning calorimetry (DSC)
Format: physicochemical
Procedure: The degradation temperature was determined by thermal gravimetric analysis (TGA) or differential scanning calorimetry (DSC).

Substance: zinc pyrithione [A (comp)]
- Degradation Temp: 265 °C

Reference: patent publication US9820481B2, “Encapsulation of active ingredients and method of making” (Arch Chemicals, Inc., priority 2013, dated 2017)
